Laboratory results reported in publication PMC12179625, “Development of an LC-MS/MS method for quantification of colistin and colistin methanesulfonate in human plasma and its application to stability studies and therapeutic drug monitoring” (Journal of Mass Spectrometry and Advances in the Clinical …, 2025).
Where two headings read alike, the source gives them in different places. Where a SMILES comes first, the peptide text is derived from it. Bridges are numbered along the chain shown (N, C = ends). [ ]: non-standard residue; d: D form. The star is where a group is joined. Heptanoyl(6-Me) = CC(C)CCCCC(=O)*; X1 = CC[C@H](C)CCCCC(=O)*; Dab = NCC[C@H](N)C(=O)O

Legend:
[1] = Stability of colistin A and colistin B in plasma samples; format: in vitro ADME; details: spiked human plasma, accuracy vs theoretical concentration, LC-MS/MS, mean ± SD, n = 3; for −80 °C freeze–thaw 3 times: three freeze–thaw cycles −80 °C to room temperature
Experimental: The calibration standard samples and QC samples were both obtained by diluting the corresponding working solution with blank plasma at a ratio of 1:19. The concentrations of the calibration standard samples were 0.10, 0.25, 0.50, 1.0, 2.5, 5.0, 8.0 and 10 μg/mL while the concentrations of the QC samples were 0.10 (LLOQ), 0.30 (LQC), 2.0 (MQC), 7.5 (HQC), and 30 (DQC) μg/mL.
(§1) The SPE column was activated by using 1 mL of methanol followed by 2 mL of ultrapure water. Subsequently, 200 μL of either calibration standard samples, QC samples, or patient plasma samples were mixed with 100 μL of IS working solution and 700 μL of 1.43 % ammonia, This step is to ensure that the solution is in a non-acidic environment. This mixture was thoroughly vortexed to ensure homogeneity. The mixed samples were then loaded onto the Welch BRP SPE columns. After sequentially washing the column with a total of 4 mL of 1 % ammonia, the analytes were eluted twice with 200 μL of […] (30:70, v/v) containing 4 % formic acid. Ultimately, 400 μL total eluate was collected and analyzed by LC-MS/MS.
(§2) This study investigated the stability of colistin A and colistin B during the assay process, including the stability of plasma samples at room temperature for 24 h, the stability through three cycles of repeated freeze–thaw from −80 °C to room temperature, the stability during storage at −80 °C for three months, and the autosampler stability of processed samples at 4°C for 24 h. Three parallel samples were prepared for each condition. If the accuracy of the samples under storage conditions is within 85 % to 115 %, the stability is considered acceptable.

[2] = Autosampler stability of processed colistin samples; format: physicochemical; details: autosampler 4 °C, accuracy, LC-MS/MS, mean ± SD, n = 3
Experimental: as §1, §2

[3] = Pharmacokinetics / TDM of CMS and colistin in patient plasma; format: in vivo, human; details: for AUC(0-t): 150 mg CBA
Experimental: as §1
The concentration of CMS was determined by calculating the difference between the concentration of total colistin after complete in vitro conversion and the concentration of free colistin in vivo. In vitro conversion of CMS was performed by sulfuric acid hydrolysis. Samples were processed as follows: 25 μL of 1 mol/L H2SO4 was added to a tube containing 200 μL of patient plasma sample and 100 μL of IS working solution, acidified at room temperature on a shaker for 1 h, and then 50 μL of 1 mol/L NaOH was added to neutralize the acid hydrolysis to maintain the pH of the final solution in the range of 7.0–7.5. After vortex mixing, 625 μL of 1.43 % ammonia solution was added and mixed thoroughly. After this conversion process, the concentration of total colistin was determined as free colistin described above.
The study included three patients infected with carbapenem-resistant Gram-negative bacteria. The patients provided informed consent, and the research project was carried out following the regulations of the Ethics Committee (Ethical approval number: TJ-IRB20220737) of Tongji Medical College, Huazhong University of Science and Technology. The physician prescribed a weight-based dosing regimen with a 300 mg loading dose of colistin base activity (CBA) and a maintenance dose of 150 mg CBA. The sample collection for this session took place during the administration of the fourth dose. […] Blood samples were collected by EDTA tubes and placed on ice and transported to the lab within 2 h. The samples were centrifuged at a speed of 1000 g for 10 min at 4°C and the supernatant was stored at −20 °C for subsequent sample preparation.
Pharmacokinetic parameters, including area under the concentration–time curve from 0 to the last measurable time point (AUC0-t) and from 0 to infinity (AUC0-∞), peak concentration (Cmax), time to reach peak concentration (Tmax), elimination half-life (t1/2), apparent volume of distribution (V), apparent total clearance (CL), and mean residence time (MRT0-∞) were calculated using DAS 2.0 (Shanghai University of TCM, China).

[4] = cited from earlier work
Experimental: The concentration–time curves and PK parameters of colistin and CMS are shown in Fig. 6 and Table 5, respectively. A total of three patients treated with CMS for carbapenem-resistant Gram-negative bacterial infections were included in this study (Ethical approval number: TJ-IRB20220737). The measured trough concentrations of colistin (Cmin) ranged from 0.97 μg/mL to 2.84 μ g/mL, and the average Cmin was 1.61 ± 1.06 μ g/mL.

[5] = SPE eluate (acetonitrile 30:70 with 4 % formic acid) of HQC 7.5 μg/mL plasma
[6] = SPE eluate (acetonitrile 30:70 with 4 % formic acid) of LQC 0.30 μg/mL plasma
[7] = CMS infusion, 150 mg CBA maintenance, fourth dose, plasma, LC-MS/MS, patient 1
[8] = CMS infusion, 150 mg CBA maintenance, fourth dose, plasma, LC-MS/MS, patient 2
[9] = CMS infusion, 150 mg CBA maintenance, fourth dose, plasma, LC-MS/MS, patient 3

CC[C@H](C)CCCCC(=O)N[C@@H](CCN)C(=O)N[C@H](C(=O)N[C@@H](CCN)C(=O)N[C@H]1CCNC(=O)[C@H]([C@@H](C)O)NC(=O)[C@H](CCN)NC(=O)[C@H](CCN)NC(=O)[C@H](CC(C)C)NC(=O)[C@@H](CC(C)C)NC(=O)[C@H](CCN)NC1=O)[C@@H](C)O [Colistin A, colistin A] (X1-[Dab]T[Dab][Dab][Dab][dL]L[Dab][Dab]T; lactam 4-C)
Frozen at −80 °C for 3 months ([1]; HQC 7.5 μg/mL): 101.24 ± 1.46%
Room temperature 24 h ([1]; HQC 7.5 μg/mL): 91.48 ± 3.06%
−80 °C freeze–thaw 3 times ([1]; HQC 7.5 μg/mL): 93.04 ± 1.97%
Frozen at −80 °C for 3 months ([1]; LQC 0.30 μg/mL): 98.31 ± 5.04%
Room temperature 24 h ([1]; LQC 0.30 μg/mL): 104.77 ± 4.59%
−80 °C freeze–thaw 3 times ([1]; LQC 0.30 μg/mL): 106.19 ± 2.48%
Processed sample In the sampler at 4 °C for 24 h [2, 5]: 100.74 ± 4.06%
Processed sample In the sampler at 4 °C for 24 h [2, 6]: 102.44 ± 1.43%

CC(C)CCCCC(=O)N[C@@H](CCN)C(=O)N[C@H](C(=O)N[C@@H](CCN)C(=O)N[C@H]1CCNC(=O)[C@H]([C@@H](C)O)NC(=O)[C@H](CCN)NC(=O)[C@H](CCN)NC(=O)[C@H](CC(C)C)NC(=O)[C@@H](CC(C)C)NC(=O)[C@H](CCN)NC1=O)[C@@H](C)O [Colistin B, colistin B] ({Heptanoyl(6-Me)}-[Dab]T[Dab][Dab][Dab][dL]L[Dab][Dab]T; lactam 4-C)
Frozen at −80 °C for 3 months ([1]; HQC 7.5 μg/mL): 98.76 ± 4.29%
Room temperature 24 h ([1]; HQC 7.5 μg/mL): 99.39 ± 1.70%
−80 °C freeze–thaw 3 times ([1]; HQC 7.5 μg/mL): 99.13 ± 6.46%
Frozen at −80 °C for 3 months ([1]; LQC 0.30 μg/mL): 109.29 ± 3.71%
Room temperature 24 h ([1]; LQC 0.30 μg/mL): 110.01 ± 3.95%
−80 °C freeze–thaw 3 times ([1]; LQC 0.30 μg/mL): 110.17 ± 4.65%
Processed sample In the sampler at 4 °C for 24 h [2, 5]: 106.46 ± 6.48%
Processed sample In the sampler at 4 °C for 24 h [2, 6]: 108.54 ± 3.07%

CC[C@H](C)CCCCC(=O)N[C@@H](CCN)C(=O)N[C@H](C(=O)N[C@@H](CCN)C(=O)N[C@H]1CCNC(=O)[C@H]([C@@H](C)O)NC(=O)[C@H](CCN)NC(=O)[C@H](CCN)NC(=O)[C@H](CC(C)C)NC(=O)[C@@H](CC(C)C)NC(=O)[C@H](CCN)NC1=O)[C@@H](C)O [Colistin, colistin] (X1-[Dab]T[Dab][Dab][Dab][dL]L[Dab][Dab]T; lactam 4-C)
AUC0-12h [3, 7]: 18.73 µg·h/mL
AUC0-24h [3, 7]: 37.48 µg·h/mL
AUC0-∞ [3, 7]: 31.44 µg·h/mL
CL (apparent total clearance) [3, 7]: 4.77 L/h
Cmax [3, 7]: 2.08 µg/mL
Cmin [3, 7]: 0.97 µg/mL
Css [3, 7]: 1.56 µg/mL
MRT0-∞ (mean residence time) [3, 7]: 13.34 h
Tmax [3, 7]: 2.00 h
Vz (apparent volume of distribution) [3, 7]: 62.61 L
t1/2 (elimination half-life) [3, 7]: 9.09 h
AUC0-12h [3, 8]: 43.03 µg·h/mL
AUC0-24h [3, 8]: 85.74 µg·h/mL
AUC0-∞ [3, 8]: 105.17 µg·h/mL
CL (apparent total clearance) [3, 8]: 1.43 L/h
Cmax [3, 8]: 4.52 µg/mL
Cmin [3, 8]: 2.84 µg/mL
Css [3, 8]: 3.57 µg/mL
MRT0-∞ (mean residence time) [3, 8]: 22.04 h
Tmax [3, 8]: 2.00 h
Vz (apparent volume of distribution) [3, 8]: 30.93 L
t1/2 (elimination half-life) [3, 8]: 15.03 h
AUC0-12h [3, 9]: 18.49 µg·h/mL
AUC0-24h [3, 9]: 37.08 µg·h/mL
AUC0-∞ [3, 9]: 25.18 µg·h/mL
CL (apparent total clearance) [3, 9]: 5.96 L/h
Cmax [3, 9]: 2.45 µg/mL
Cmin [3, 9]: 1.04 µg/mL
Css [3, 9]: 1.55 µg/mL
MRT0-∞ (mean residence time) [3, 9]: 10.86 h
Tmax [3, 9]: 3.00 h
Vz (apparent volume of distribution) [3, 9]: 49.04 L
t1/2 (elimination half-life) [3, 9]: 5.71 h
AUC0-24h ([3]; first of the three patients): 37.43 µg·h/mL
Css,avg ([3]; first of the three patients): 1.56 µg/mL
AUC(0-t) ([3]; human, in vivo, iv, patients on CMS infusion (300 mg CBA loading, 150 mg CBA maintenance), fourth dose, plasma, SPE LC-MS/MS, DAS 2.0, mean ± SD of 3 patients, SD, read-out: AUC0-12h): 26.8 ± 14.1 µg·h/mL
AUC(0-t) ([3]; human, in vivo, iv, patients on CMS infusion (300 mg CBA loading, 150 mg CBA maintenance), fourth dose, plasma, SPE LC-MS/MS, DAS 2.0, mean ± SD of 3 patients, SD, read-out: AUC0-24h): 53.4 ± 28 µg·h/mL
AUC(0-inf) ([3]; human, in vivo, iv, patients on CMS infusion (300 mg CBA loading, 150 mg CBA maintenance), fourth dose, plasma, SPE LC-MS/MS, DAS 2.0, mean ± SD of 3 patients, SD): 53.9 ± 44.5 µg·h/mL
clearance ([3]; human, in vivo, iv, patients on CMS infusion (300 mg CBA loading, 150 mg CBA maintenance), fourth dose, plasma, SPE LC-MS/MS, DAS 2.0, mean ± SD of 3 patients, SD, read-out: CL (apparent total clearance) (converted)): 67.5 mL/min
MRT ([3]; human, in vivo, iv, patients on CMS infusion (300 mg CBA loading, 150 mg CBA maintenance), fourth dose, plasma, SPE LC-MS/MS, DAS 2.0, mean ± SD of 3 patients, SD, read-out: MRT0-∞ (mean residence time)): 15.4 ± 5.87 h
Vd ([3]; human, in vivo, iv, patients on CMS infusion (300 mg CBA loading, 150 mg CBA maintenance), fourth dose, plasma, SPE LC-MS/MS, DAS 2.0, mean ± SD of 3 patients, SD, read-out: Vz (apparent volume of distribution)): 47.5 ± 15.9 L
half-life ([3]; human, in vivo, iv, patients on CMS infusion (300 mg CBA loading, 150 mg CBA maintenance), fourth dose, plasma, SPE LC-MS/MS, DAS 2.0, mean ± SD of 3 patients, SD, read-out: t1/2 (elimination half-life) (converted)): 9.94 ± 4.72 h
Cmax ([3]; human, in vivo, iv, patients on CMS infusion (300 mg CBA loading, 150 mg CBA maintenance), fourth dose, plasma, SPE LC-MS/MS, mean ± SD of 3 patients, SD, read-out: Cmax): 3.01 ± 1.32 µg/mL
Tmax ([3]; human, in vivo, iv, patients on CMS infusion (300 mg CBA loading, 150 mg CBA maintenance), fourth dose, plasma, SPE LC-MS/MS, mean ± SD of 3 patients, SD, read-out: Tmax): 2.33 ± 0.58 h
time at which peak concentration (Cmax) was reached ([3]; in words, three patients, CMS infusion (1 h)): at 1-hour post-infusion
Css ([3]; patients on CMS infusion (300 mg CBA loading, 150 mg CBA maintenance), fourth dose, plasma, SPE LC-MS/MS, DAS 2.0, mean ± SD of 3 patients, SD): 2.23 ± 1.17 µg/mL
Cmin ([3]; patients on CMS infusion (300 mg CBA loading, 150 mg CBA maintenance), fourth dose, plasma, SPE LC-MS/MS, mean ± SD of 3 patients, SD): 1.61 ± 1.06 µg/mL
AUC0-24h ([3]; second of the three patients): 86.05 µg·h/mL
AUC0-24h ([3]; third of the three patients): 36.98 µg·h/mL
Tmax ([4]; healthy subjects): 2 h
half-life ([4]; healthy volunteers, ref Couet W et al., 31): 3.0 ± 0.6 h

colistin methanesulfonate [CMS]
CL (apparent total clearance) ([3]; human, in vivo, iv, SD): 6.87 ± 1.38 L/h
Tmax ([3]; human, in vivo, iv, SD): 1.33 ± 0.58 h
Vz (apparent volume of distribution) ([3]; human, in vivo, iv, SD): 14.11 ± 2.39 L
t1/2 (elimination half-life) ([3]; human, in vivo, iv, SD): 1.50 ± 0.57 h
Tmax ([4]; human, in vivo): 1 h
half-life ([4]; human, in vivo): 2.0 ± 0.12 h
